Counter-ions that a name gives are not always drawn.
Experiments:
[1] = molecular target: T1, human NPFFR1 (hNPFFR1) receptor (Homo sapiens, UniProt Q9GZQ6); test: Human NPFFR1 evaluation using BRET biosensors in HEK-293 T cells; format: cell-based; details: hNPFFR1 in HEK-293 T cells, stimulated by EC80 RFRP-3, read-out: IC50 of antagonist activity
T1 construct: expressed in transfected cells; host or cells: HEK-293 T cells, transient co-transfection
Description: Compounds of the present invention were tested successively for their agonist and antagonist activities on human NPFFR1 (hNPFFR1) receptor transiently over-expressed in HEK-293 T cells. Compounds exert agonist activity if, by themselves in absence of neuropeptide RFRP-3 (also named NPVF) they activate hNPFFR1; and they exert antagonist activity if they decrease the action of RFRP-3 on the receptor. The assay used to measure compound activity is based on BRET (Bioluminescence Resonance Energy Transfer) biosensors and is designed to monitor the plasma membrane translocation of protein that interacts with specific Ga subunit. The specific effector (luciferase tagged: BRET donor) recruited at the membrane will be in close proximity to a plasma membrane anchor (GFP tagged: BRET acceptor) to induce a BRET signal (Ramdan et al, 2006, Chapter 5, Current Protocols in Neuroscience).
HEK-293 T cells are maintained in Dulbecco's Modified Eagle's Medium supplemented with 10% Foetal Calf Serum, 1% Penicillin/Streptomycin at 37° C./5% CO2. Cells are co-transfected using polyethylenimine (25 kDa linear) with four DNA plasmids encoding; hNPFFR1, GαoB, a Gi family specific intracellular effector fused to luciferase (BRET donor), a plasma membrane effector fused to GFP (BRET acceptor). After transfection, cells are cultured for 48 h at 37° C./5% CO2.
Receptor activity is detected by changes in BRET signal.
On the day of the assay, cells are detached using trypsin 0.05%, resuspended in assay buffer (1.8 mM CaCl2, 1 mM MgCl2, 2.7 mM KCl, 137 mM NaCl, 0.4 mM NaH2PO4, 5.5 mM D-Glucose, 11.9 mM NaHCO3, 25 mM Hepes) and seeded in 384 well plate at a density of 20,000 cells per well. Then, plates are equilibrated 3.5 hours at 37° C. before adding compounds.
Compounds and luciferase substrate are added to the cells using an automated device (Freedom Evo®, Tecan) and BRET readings are collected on EnVision (PerkinElmer) with specific filters (410 nm BW 80 nm, 515 nm BW 30 nm).
Agonist and antagonist activities of compounds are consecutively evaluated on the same cell plate. Agonist activity is first measured after 10 minutes incubation with compound alone on the cells. Then, cells are stimulated by an EC80 RFRP-3 concentration and luminescence is recorded for additional 10 minutes. EC80 RFRP-3 concentration is the concentration giving 80% of the maximal RFRP-3 response. Agonist or antagonist activities are evaluated in comparison to basal signals evoked by assay buffer or EC80 RFRP-3 alone, respectively.
For IC50 determination, a dose-response test is performed using 20 concentrations (ranging over 6 logs) of each compound. Dose-response curves are fitted using the sigmoidal dose-response (variable slope) analysis in GraphPad Prism software (GraphPad Software) and IC50 of antagonist activity is calculated. Dose-response experiments are performed in duplicate, in two independent experiments.

T1 sequence (Q9GZQ6 whole entry): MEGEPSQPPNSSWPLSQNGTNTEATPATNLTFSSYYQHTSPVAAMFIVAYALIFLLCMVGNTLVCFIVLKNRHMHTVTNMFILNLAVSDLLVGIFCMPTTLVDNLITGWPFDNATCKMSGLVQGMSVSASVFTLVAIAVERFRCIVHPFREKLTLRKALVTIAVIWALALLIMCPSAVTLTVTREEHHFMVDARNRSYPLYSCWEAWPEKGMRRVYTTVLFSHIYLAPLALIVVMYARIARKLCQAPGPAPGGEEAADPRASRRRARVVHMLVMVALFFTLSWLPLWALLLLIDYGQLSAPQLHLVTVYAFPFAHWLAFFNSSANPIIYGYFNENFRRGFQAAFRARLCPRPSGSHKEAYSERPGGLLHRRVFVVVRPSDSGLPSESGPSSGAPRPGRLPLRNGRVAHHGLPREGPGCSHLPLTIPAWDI

Cl.Nc1ccc(-c2ccc(Cl)c3ccccc23)c(N)n1 [Compound 73, 3-(4-chloro-1-naphthyl)pyridine-2,6-diamine]
IC50 [1]: < 100 nM
melting point: 135 to 140 °C

CC(C)Oc1cc(F)ccc1-c1ccc(N)nc1N [Compound 53, 3-(4-Fluoro-2-isopropoxy-phenyl)-pyridine-2,6-diamine]
IC50 [1]: 100 to 500 nM
melting point: 59 to 63 °C

Cc1ccc(OC(C)C)c(-c2ccc(N)nc2N)c1 [Compound 49, 3-(2-Isopropoxy-5-methyl-phenyl)-pyridine-2,6-diamine]
IC50 [1]: 500 to 1000 nM
melting point: 78 to 81 °C

Cl.Nc1ccc(-c2ccc(F)c3ccccc23)c(N)n1 [Compound 72, 3-(4-fluoro-1-naphthyl)pyridine-2,6-diamine]
IC50 [1]: < 100 nM
melting point: 119 to 126 °C

CC(C)Oc1ccc2ccccc2c1-c1ccc(N)nc1N [Compound 70, 3-(2-isopropoxy-1-naphthyl)pyridine-2,6-diamine]
IC50 [1]: 500 to 1000 nM
melting point: 40 to 43 °C

Cl.Nc1ccc(-c2ccccc2OCC2CC2)c(N)n1 [Compound 65, 3-[2-(cyclopropylmethoxy)phenyl]pyridine-2,6-diamine]
IC50 [1]: < 100 nM
melting point: 63 to 68 °C

CSc1ccccc1-c1ccc(N)nc1N.Cl [Compound 59, 3-(2-Methylsulfanyl-phenyl)-pyridine-2,6-diamine]
IC50 [1]: 100 to 500 nM
melting point: 73 to 78 °C

COc1ccccc1-c1c(C)cc(N)nc1C [Compound 27, 5-(2-Methoxy-phenyl)-4,6-dimethyl-pyridin-2-ylamine]
IC50 [1]: > 1000 nM
melting point: 178 to 181 °C

Cc1cccc(-c2ccc(N)nc2N)c1Cl [Compound 58, 3-(2-chloro-3-methyl-phenyl)-pyridine-2,6-diamine]
IC50 [1]: 100 to 500 nM
melting point: 109 to 114 °C

COc1ccc(-c2ccc(N)nc2N)c(C)c1 [Compound 40, 3-(4-Methoxy-2-methyl-phenyl)-pyridine-2,6-diamine]
IC50 [1]: > 1000 nM
melting point: 150 to 158 °C

Cl.Nc1ccc(-c2ccc(O)c3ccccc23)c(N)n1 [Compound 74, 4-(2,6-diamino-3-pyridyl)naphthalen-1-ol]
IC50 [1]: 500 to 1000 nM
melting point: 160 to 166 °C

Nc1ccc(-c2ccc(F)nc2)c(N)n1 [Compound 86, 3-(6-fluoro-3-pyridyl)pyridine-2,6-diamine]
IC50 [1]: > 1000 nM
melting point: 170 to 178 °C

Cc1ccc(-c2ccc(N)nc2N)c(OC(C)C)c1 [Compound 46, 3-(2-Isopropoxy-4-methyl-phenyl)-pyridine-2,6-diamine]
IC50 [1]: > 1000 nM
melting point: 75 to 80 °C

Cc1ccc(Cl)cc1-c1ccc(N)nc1N [Compound 56, 3-(5-Chloro-2-methyl-phenyl)-pyridine-2,6-diamine]
IC50 [1]: 100 to 500 nM
melting point: 95 to 97 °C

NCCOc1nc(N)ccc1-c1cccc(Cl)c1Cl (as salt: hydrochloride) [Compound 38, 6-(2-Amino-ethoxy)-5-(2,3-dichloro-phenyl)-pyridin-2-ylamine]
melting point: 183 to 190 °C

CCc1nc(N)ccc1-c1cccc2ccccc12.Cl [Compound 67, 6-ethyl-5-(1-naphthyl)pyridin-2-amine]
IC50 [1]: 100 to 500 nM
melting point: 90 to 120 °C

COc1ncccc1-c1ccc(N)nc1N [Compound 89, 3-(2-methoxy-3-pyridyl)pyridine-2,6-diamine]
IC50 [1]: > 1000 nM
melting point: 174 to 176 °C

Cc1nc(F)ccc1-c1ccc(N)nc1N [Compound 85, 3-(6-fluoro-2-methyl-3-pyridyl)pyridine-2,6-diamine]
IC50 [1]: > 1000 nM
melting point: 186 to 192 °C

Nc1ccc(-c2ccc(N)nc2N)cn1 [Compound 82, 3-(6-amino-3-pyridyl)pyridine-2,6-diamine]
melting point: 220 to 240 °C

Cc1cc(N)ncc1-c1cccc(Cl)c1Cl [Compound 22, 5-(2,3-Dichloro-phenyl)-4-methyl-pyridin-2-ylamine]
IC50 [1]: > 1000 nM
melting point: 94 to 97 °C

COc1ccccc1-c1cnc(N)cc1F [Compound 18, 4-Fluoro-5-(2-methoxy-phenyl)-pyridin-2-ylamine]
melting point: 65 to 70 °C

COc1ccccc1-c1cnc(N)cc1OCC(F)(F)F.Cl
melting point: 238 to 240 °C

CC(C)Oc1ccc(F)cc1-c1ccc(N)nc1N [Compound 50, 3-(5-Fluoro-2-isopropoxy-phenyl)-pyridine-2,6-diamine]
IC50 [1]: 500 to 1000 nM
melting point: 93 to 97 °C

CC(=O)Nc1ccccc1-c1ccc(N)nc1N [Compound 62, N-[2-(2,6-Diamino-pyridin-3-yl)-phenyl]-acetamide]
melting point: 60 to 70 °C

COc1ccc2ccccc2c1-c1ccc(N)nc1N [Compound 69, 3-(2-methoxy-1-naphthyl)pyridine-2,6-diamine]
IC50 [1]: 100 to 500 nM
melting point: 63 to 67 °C

Cc1cc(Cl)ccc1-c1ccc(N)nc1N [Compound 54, 3-(4-Chloro-2-methyl-phenyl)-pyridine-2,6-diamine]
IC50 [1]: > 1000 nM
melting point: 80 to 85 °C

Nc1ccc(-c2ccc(F)cc2Cl)c(N)n1 [Compound 45, 3-(2-Chloro-4-fluoro-phenyl)-pyridine-2,6-diamine]
IC50 [1]: 500 to 1000 nM
melting point: 150 to 155 °C

COc1ccccc1-c1cnc(N)cc1OCCN.Cl
melting point: 218 to 224 °C

COc1cc(N)ncc1-c1cccc(Cl)c1Cl.Cl
melting point: > 250 °C

Nc1ccc(-c2ccc(Cl)cc2F)c(N)n1 [Compound 41, 3-(4-Chloro-2-fluoro-phenyl)-pyridine-2,6-diamine]
IC50 [1]: > 1000 nM
melting point: 134 to 139 °C

Cl.N#Cc1ccccc1-c1ccc(N)nc1N [Compound 96, 2-(2,6-diamino-3-pyridyl)benzonitrile]
IC50 [1]: 100 to 500 nM
melting point: > 250 °C

CNc1ccc(-c2ccc(N)nc2N)cn1 [Compound 80, 3-[6-(methylamino)-3-pyridyl]pyridine-2,6-diamine]
melting point: 178 to 182 °C

Cc1cc(N)nc(C)c1-c1cccc(Cl)c1Cl [Compound 28, 5-(2,3-Dichloro-phenyl)-4,6-dimethyl-pyridin-2-ylamine]
melting point: 140 to 145 °C

Cc1c(Cl)cccc1-c1cc(F)c(N)nc1N [Compound 66, 3-(3-Chloro-2-methyl-phenyl)-5-fluoro-pyridine-2,6-diamine]
melting point: 128 to 135 °C

CCc1nc(N)ccc1-c1ccccc1OC1CC1.Cl [Compound 31, 5-[2-(cyclopropoxy)phenyl]-6-ethyl-pyridin-2-amine]
IC50 [1]: < 100 nM
melting point: 60 to 80 °C

Nc1ccc(-c2ccc(N3CCOCC3)nc2)c(N)n1 [Compound 78, 3-(6-morpholino-3-pyridyl)pyridine-2,6-diamine]
melting point: 201 to 205 °C

Nc1cc(F)c(-c2cccc(Cl)c2Cl)cn1 [Compound 17, 5-(2,3-Dichloro-phenyl)-4-fluoro-pyridin-2-ylamine]
melting point: 107 to 112 °C

COc1ccccc1-c1ccc(N)nc1OCCN [Compound 37, 6-(2-Amino-ethoxy)-5-(2-methoxy-phenyl)-pyridin-2-ylamine]
melting point: 197 to 203 °C

Nc1ccc(-c2cnc(N)c(C(F)(F)F)c2)c(N)n1 [Compound 83, 3-[6-amino-5-(trifluoromethyl)-3-pyridyl]pyridine-2,6-diamine]
melting point: 154 to 155 °C

COc1ccccc1-c1cnc(N)c(F)c1 [Compound 15, 3-Fluoro-5-(2-methoxy-phenyl)-pyridin-2-ylamine]
melting point: 75 to 79 °C

CN(C)c1ccc(-c2ccc(N)nc2N)c2ccccc12.Cl
melting point: 175 to 181 °C

COc1ccccc1-c1cnc(N)cc1OC [Compound 20, 4-Methoxy-5-(2-methoxy-phenyl)-pyridin-2-ylamine]
melting point: 140 to 144 °C

COc1ccccc1-c1cnc(N)c(C(F)(F)F)c1 [Compound 14, 5-(2-Methoxy-phenyl)-3-trifluoromethyl-pyridin-2-ylamine]
melting point: 63 to 67 °C
